{"source": "ChEMBL document CHEMBL3244027", "about": "“Syntheses, analgetic activity, and physical dependence capacity of 5-phenyl-6,7-benzomorphan derivatives” (J Med Chem, 1979)", "key": {"Mus musculus [1]": {"system": "Mus musculus", "assay": "Analgetic activity in sc dosed CF1S mouse assessed as writhing by phenylquinone writhing test", "format": "functional"}, "Mus musculus [2]": {"system": "Mus musculus", "assay": "Analgetic activity against CF-1 mouse assessed as increase in reaction time at 320 mg/kg, po by heat stimulus induced tail flick response assay", "format": "functional, organism-based", "design": "dose 320 mg/kg"}, "Mus musculus [3]": {"system": "Mus musculus", "assay": "Analgetic activity in po dosed CF1S mouse assessed as writhing by phenylquinone writhing test", "format": "functional"}, "[4]": {"conditions": "Mus musculus, CF1S, sc, read-out: ED50"}, "[5]": {"conditions": "Mus musculus, CF1S, po, read-out: ED50"}}, "note": "Active and inactive are the calls of the source. The rule behind the calls is not given here.", "data": [{"smiles": "CC(C)O.Cl.Oc1ccc2c(c1)C1(c3ccccc3)CCN(CC3CC3)C(C2)C1", "note": "(stereo in doubt; 144)", "values": [{"measurement": "ED50", "setting": "Mus musculus [1]", "result": ">33", "unit": "mg/kg"}]}, {"smiles": "CC1C2Cc3ccc(O)cc3C1(c1ccccc1)CCN2CC1CCC1.Cl", "note": "(stereo in doubt; 171)", "values": [{"measurement": "ED50", "setting": "Mus musculus [1]", "result": ">100", "unit": "mg/kg"}]}, {"smiles": "C=CCN1CCC2(c3ccccc3)CC1Cc1ccc(O)cc12", "note": "(stereo in doubt; 146)", "values": [{"measurement": "ED50", "setting": "Mus musculus [1]", "result": ">30", "unit": "mg/kg"}]}, {"smiles": "CN1CCC2(c3ccccc3)CC1Cc1ccc(O)cc12.Cl", "note": "(stereo in doubt; 42)", "values": [{"measurement": "ED50", "setting": "Mus musculus [1]", "result": 5.6, "unit": "mg/kg"}]}, {"smiles": "Br.CC1C2Cc3ccc(O)cc3C1(c1ccccc1)CCN2CCC(c1ccccc1)c1ccccc1.O", "note": "(stereo in doubt; 166)", "values": [{"measurement": "ED50", "setting": "Mus musculus [1]; [4]", "result": "> 100", "unit": "mg/kg"}]}, {"smiles": "CC(C)=CCN1CCC2(c3ccccc3)c3cc(O)ccc3CC1C2C.Cl", "note": "(stereo in doubt; 207)", "values": [{"measurement": "ED50", "setting": "Mus musculus [1]; [4]", "result": 39, "unit": "mg/kg"}]}, {"smiles": "CC1C2Cc3ccc(O)cc3C1(c1ccccc1)CCN2CCC(c1ccccc1)c1ccccc1", "note": "(stereo in doubt; 188)", "values": [{"measurement": "Activity", "setting": "Mus musculus [2]", "result": "inactive"}]}, {"smiles": "CC1C2Cc3ccc(OC(=O)c4ccc(F)cc4)cc3C1(c1ccccc1)CCN2C", "note": "(stereo not given)", "values": [{"measurement": "ED50", "setting": "Mus musculus [1]; [4]", "result": 0.7, "unit": "mg/kg"}]}, {"smiles": "CC(C)=CCN1CCC2(c3ccccc3)c3cc(OC(=O)c4ccccc4)ccc3CC1C2C", "note": "(stereo not given)", "values": [{"measurement": "ED50", "setting": "Mus musculus [1]; [4]", "result": "> 100", "unit": "mg/kg"}]}, {"smiles": "CC(C)=CCN1CCC2(c3ccccc3)c3cc(O)ccc3CC1C2C.Cl", "note": "(stereo in doubt; 169)", "values": [{"measurement": "ED50", "setting": "Mus musculus [1]", "result": 41, "unit": "mg/kg"}]}, {"smiles": "C[C@@H]1C2Cc3ccc(O)cc3C1(c1ccccc1)CCN2CCC(O)(c1ccccc1)c1ccccc1", "note": "(stereo not given in full)", "values": [{"measurement": "Activity", "setting": "Mus musculus [2]", "result": "inactive"}, {"measurement": "ED50", "setting": "Mus musculus [1]; [4]", "result": "> 100", "unit": "mg/kg"}]}, {"smiles": "CC1C2Cc3ccc(O)cc3C1(c1ccccc1)CCN2CC12CC3CC(CC(C3)C1)C2.Cl", "note": "(stereo not given)", "values": [{"measurement": "Activity", "setting": "Mus musculus [2]", "result": "inactive"}, {"measurement": "ED50", "setting": "Mus musculus [3]; [5]", "result": "> 100", "unit": "mg/kg"}]}, {"smiles": "CC1C2Cc3ccc(O)cc3C1(c1ccccc1)CCN2C(=O)C12CC3CC(CC(C3)C1)C2", "note": "(stereo not given)", "values": [{"measurement": "ED50", "setting": "Mus musculus [1]; [4]", "result": "> 100", "unit": "mg/kg"}]}, {"smiles": "Cl.Oc1ccc2c(c1)C1(c3ccccc3)CCN(CC3CCC3)C(C2)C1", "note": "(racemic)", "values": [{"measurement": "ED50", "setting": "Mus musculus [1]", "result": 6.2, "unit": "mg/kg"}, {"measurement": "ED50", "setting": "Mus musculus [3]", "result": 124, "unit": "mg/kg"}]}, {"smiles": "CC1C2Cc3ccc(O)cc3C1(c1ccccc1)CCN2CCC(C#N)(c1ccccc1)c1ccccc1", "note": "(stereo in doubt; 167) [listing 1 of 2 here]", "values": [{"measurement": "ED50", "setting": "Mus musculus [1]; [4]", "result": 110, "unit": "mg/kg"}, {"measurement": "ED50", "setting": "Mus musculus [3]; [5]", "result": "> 100", "unit": "mg/kg"}]}, {"smiles": "CC(C)O.Cl.Oc1ccc2c(c1)C1(c3ccccc3)CCN(CC3CC3)C(C2)C1", "note": "(racemic)", "values": [{"measurement": "ED50", "setting": "Mus musculus [1]; [4]", "result": 33, "unit": "mg/kg"}, {"measurement": "ED50", "setting": "Mus musculus [3]; [5]", "result": 107, "unit": "mg/kg"}]}, {"smiles": "CC(=O)CCN1CCC2(c3ccccc3)c3cc(O)ccc3CC1[C@H]2C.CS(=O)(=O)O", "note": "(stereo not given in full)", "values": [{"measurement": "ED50", "setting": "Mus musculus [3]; [5]", "result": "> 100", "unit": "mg/kg"}]}, {"smiles": "Br.CC1C2Cc3ccc(O)cc3C1(c1ccccc1)CCN2CC1COc2ccccc2O1", "note": "(stereo not given)", "values": [{"measurement": "ED50", "setting": "Mus musculus [1]; [4]", "result": 84, "unit": "mg/kg"}, {"measurement": "ED50", "setting": "Mus musculus [3]; [5]", "result": "> 100", "unit": "mg/kg"}]}, {"smiles": "CC1C2Cc3ccc(O)cc3C1(c1ccccc1)CCN2CC1CCC1.Cl", "note": "(stereo in doubt; 219)", "values": [{"measurement": "ED50", "setting": "Mus musculus [1]", "result": 28, "unit": "mg/kg"}, {"measurement": "ED50", "setting": "Mus musculus [3]; [5]", "result": 300, "unit": "mg/kg"}]}, {"smiles": "Cl.Oc1ccc2c(c1)C1(c3ccccc3)CCN(CC3CCC3)C(C2)C1", "note": "(stereo in doubt; 145)", "values": [{"measurement": "ED50", "setting": "Mus musculus [1]", "result": 2.8, "unit": "mg/kg"}, {"measurement": "ED50", "setting": "Mus musculus [3]", "result": 34, "unit": "mg/kg"}]}, {"smiles": "CC(C)=CCN1CCC2(c3ccccc3)c3cc(OS(=O)(=O)c4ccc(C)cc4)ccc3CC1C2C", "note": "(stereo not given)", "values": [{"measurement": "ED50", "setting": "Mus musculus [1]; [4]", "result": "> 100", "unit": "mg/kg"}]}, {"smiles": "Br.Oc1ccc2c(c1)C1(c3ccccc3)CCN(CCN3CCOCC3)C(C2)C1", "note": "(racemic)", "values": [{"measurement": "Activity", "setting": "Mus musculus [2]", "result": "inactive"}, {"measurement": "ED50", "setting": "Mus musculus [1]; [4]", "result": "> 100", "unit": "mg/kg"}]}, {"smiles": "CC1C2Cc3ccc(O)cc3C1(c1ccccc1)CCN2C(=O)C12CC3CC(CC(C3)C1)C2.O", "note": "(stereo not given)", "values": [{"measurement": "ED50", "setting": "Mus musculus [3]; [5]", "result": "> 100", "unit": "mg/kg"}]}, {"smiles": "CC1C2Cc3ccc(OC(=O)C(c4ccccc4)c4ccccc4)cc3C1(c1ccccc1)CCN2C(=O)C(c1ccccc1)c1ccccc1.O", "note": "(stereo not given)", "values": [{"measurement": "Activity", "setting": "Mus musculus [2]", "result": "inactive"}, {"measurement": "ED50", "setting": "Mus musculus [1]; [4]", "result": "> 100", "unit": "mg/kg"}]}, {"smiles": "CC(C)O.CC1C2Cc3ccc(O)cc3C1(c1ccccc1)CCN2CC1CC1.Cl", "note": "(stereo in doubt; 218)", "values": [{"measurement": "ED50", "setting": "Mus musculus [1]", "result": ">100", "unit": "mg/kg"}]}, {"smiles": "CC1C2Cc3ccc(O)cc3C1(c1ccccc1)CCN2CCCN(C)C", "note": "(stereo not given)", "values": [{"measurement": "ED50", "setting": "Mus musculus [1]; [4]", "result": "> 120", "unit": "mg/kg"}]}, {"smiles": "C[C@@H]1C2Cc3ccc(O)cc3C1(c1ccccc1)CCN2CC(=O)O", "note": "(stereo not given in full)", "values": [{"measurement": "ED50", "setting": "Mus musculus [1]; [4]", "result": "> 100", "unit": "mg/kg"}]}, {"smiles": "CN1CCC2(c3ccccc3)CC1Cc1ccccc12.O=C(O)C(O)C(O)C(=O)O", "note": "(stereo in doubt; 37)", "values": [{"measurement": "ED50", "setting": "Mus musculus [1]", "result": 8, "unit": "mg/kg"}]}, {"smiles": "C#CCN1CCC2(c3ccccc3)c3cc(OC)ccc3CC1C2C", "note": "(stereo not given)", "values": [{"measurement": "ED50", "setting": "Mus musculus [1]; [4]", "result": "> 100", "unit": "mg/kg"}]}, {"smiles": "CC(C)O.CC1C2Cc3ccc(O)cc3C1(c1ccccc1)CCN2CC1CC1.Cl", "note": "(stereo in doubt; 170)", "values": [{"measurement": "ED50", "setting": "Mus musculus [1]; [4]", "result": 100, "unit": "mg/kg"}]}, {"smiles": "CC(C)=CCN1CCC2(c3ccccc3)CC1Cc1ccc(O)cc12", "note": "(racemic)", "values": [{"measurement": "ED50", "setting": "Mus musculus [1]; [4]", "result": 15, "unit": "mg/kg"}]}, {"smiles": "CC1C2Cc3ccc(OC(=O)c4c(Cl)cccc4Cl)cc3C1(c1ccccc1)CCN2C", "note": "(stereo not given)", "values": [{"measurement": "ED50", "setting": "Mus musculus [1]; [4]", "result": "> 100", "unit": "mg/kg"}]}, {"smiles": "C=C(Br)CN1CCC2(c3ccccc3)CC1Cc1ccc(O)cc12", "note": "(racemic)", "values": [{"measurement": "ED50", "setting": "Mus musculus [1]; [4]", "result": "> 100", "unit": "mg/kg"}]}, {"smiles": "CCOC(=O)N1CCC2(c3ccccc3)CC1Cc1ccc(OC(C)=O)cc12", "note": "(racemic)", "values": [{"measurement": "Activity", "setting": "Mus musculus [2]", "result": "inactive"}, {"measurement": "ED50", "setting": "Mus musculus [3]; [5]", "result": "> 100", "unit": "mg/kg"}]}, {"smiles": "Oc1ccc2c(c1)C1(c3ccccc3)CCN(CCc3cccs3)C(C2)C1", "note": "(racemic)", "values": [{"measurement": "Activity", "setting": "Mus musculus [2]", "result": "inactive"}]}, {"smiles": "CC(O)C(=O)O.CC1C2Cc3ccc(O)cc3C1(c1ccccc1)CCN2C/C=C/c1cccs1", "note": "(stereo not given)", "values": [{"measurement": "Activity", "setting": "Mus musculus [2]", "result": "inactive"}, {"measurement": "ED50", "setting": "Mus musculus [3]; [5]", "result": "> 100", "unit": "mg/kg"}]}, {"smiles": "COc1ccc2c(c1)C1(c3ccccc3)CCN(C)C(C2)C1.Cl.O", "note": "(stereo not given)", "values": [{"measurement": "ED50", "setting": "Mus musculus [1]; [4]", "result": 16, "unit": "mg/kg"}]}, {"smiles": "CN1CCC2(c3ccccc3)CC1Cc1ccccc12.O=C(O)C(O)C(O)C(=O)O", "note": "(stereo in doubt; 36)", "values": [{"measurement": "ED50", "setting": "Mus musculus [1]; [4]", "result": 5.5, "unit": "mg/kg"}]}, {"smiles": "COc1ccc2c(c1)C1(c3ccccc3)CCN(C)C(C2)C1", "note": "(racemic)", "values": [{"measurement": "ED50", "setting": "Mus musculus [1]; [4]", "result": 14, "unit": "mg/kg"}]}, {"smiles": "CC1C2Cc3ccc(O)cc3C1(c1ccccc1)CCN2CCC(C#N)(c1ccccc1)c1ccccc1", "note": "(stereo in doubt; 167) [listing 2 of 2 here]", "values": [{"measurement": "Activity", "setting": "Mus musculus [2]", "result": "inactive"}]}, {"smiles": "CC1C2Cc3ccc(O)cc3C1(c1ccccc1)CCN2C/C=C/Cl", "note": "(stereo not given)", "values": [{"measurement": "Activity", "setting": "Mus musculus [2]", "result": "inactive"}, {"measurement": "ED50", "setting": "Mus musculus [1]; [4]", "result": "> 100", "unit": "mg/kg"}]}, {"smiles": "C=CCN1CCC2(c3ccccc3)CC1Cc1ccc(O)cc12", "note": "(racemic)", "values": [{"measurement": "ED50", "setting": "Mus musculus [1]", "result": ">100", "unit": "mg/kg"}]}]}
